Test results taken from US5688821A, “Unsaturated fatty acyl derivatives of 2-aminothiazoleacetic acid and their salts as inhibitors of phospholipase A2 derived from human sources” (American Home Products Corporation, priority 1996, dated 1997).
Where a name gives a salt, the structure may show the parent alone. Read-outs that look alike come from different tables or passages of the source.

How the values were obtained:
Human Synovial PLA2 = biological target: T1, Human Synovial PLA2 (Homo sapiens, UniProt P14555); assay: Inhibition of PLA2 derived from human synovial fluid (HSF), arachidonic acid release from 3H-AA E. coli substrate; format: biochemical; conditions: for inhibition at 50 µM: Drug Concentration 50 μM; for inhibition at 10 µM / % Inhibition HSF: Drug Concentration 10 μM, Example 8: average of two runs; for % Inhibition HSF: 10 µM
T1 construct: Purified human synovial fluid; from tissue; host or cells: human synovial fluid (purified)
T1 sequence (P14555 21-144): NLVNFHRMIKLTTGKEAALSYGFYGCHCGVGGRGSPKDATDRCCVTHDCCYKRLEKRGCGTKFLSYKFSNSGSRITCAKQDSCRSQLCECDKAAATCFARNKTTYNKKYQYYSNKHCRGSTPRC
Protocol: (§1) The compounds of the invention are tested in an in vitro isolated phospholipase A2 assay to determine the ability of the test compounds to inhibit the release of arachidonic acid from an arachidonic acid-containing substrate by the action of phospholipase A enzyme from two human sources.
(§2) 1. INHIBITION OF PLA2 DERIVED FROM HUMAN PLATELETS AND HUMAN SYNOVIAL FLUID
(§3) This assay is carried out as follows:
(§4) Into a 15 mL polypropylene tube are added the following: […]
(§5) *pre-incubate at room temperature 30 min prior to substrate addition.
(§6) ^1. Prepared by adding 2 mL deionized and distilled water to 2 mL ^3 H-arachidonate labeled E. coli (lower count), to which is added 1 mL of ^3 H-arachidonate labeled E. coli (higher count) to yield a total of […] substrate (containing 1000 nmoles phospholipid, PL).
(§7) ^2 Stock 0.1M CaCl2 required for enzyme activity.
(§8) ^3 Stock 0.5M Trisma-Base. Stock 0.5M Trisma-HCl. Adjust pH to 7.5 (optimum for enzyme).
(§9) ^4 Deionized and distilled water.
(§10) ^5 Stock 10 mM prepared in dimethyl sulfoxide. Make 1:2 dilution with dimethyl sulfoxide and add 1 μL to 100 μL assay tube.
^6 Two human PLA2 enzymes are used: […]
(b) Purified human synovial fluid.
(§11) Incubate the […] reaction mixture for 10 minutes at 37° C. in a shaking water bath. The reaction is terminated by the addition of 2 mL tetrahydrofuran, followed by vortexing. NH2 columns ([…]--Analytichem International) are conditioned with 0.5 mL tetrahydrofuran followed by 0.5 mL tetrahydrofuran/water (2 mL:0.1 mL, v/v).
(§12) The sample is loaded onto the columns and slowly dram through them. The hydrolyzed arachidonic acid retained in the columns is eluted therefrom with 1 mL tetrahydrofuran/glacial acetic acid (2%). The arachidonic acid is transferred to scintillation vials and quantitated by β-counting analysis. A "total counts" sample is prepared by pipetting 25 μl, ^3 H-arachidonate E. coli directly into a scintillation vial to which is added 1 mL tetrahydrofuran. 10 mL aquasol (scintillation cocktail) is added to all samples.

Human Platelet PLA2 = biological target: T2, Human Platelet PLA2 (Homo sapiens, UniProt P14555); assay: Inhibition of PLA2 derived from human platelets (HP), arachidonic acid release from 3H-AA E. coli substrate; format: biochemical; conditions: for inhibition at 50 µM: Drug Concentration 50 μM; for inhibition at 10 µM / % Inhibition HP: Drug Concentration 10 μM, Example 8: average of two runs; for % Inhibition HP: 10 µM
T2 construct: semi-purified human platelet acid extract PLA2; from tissue; host or cells: human platelets (semi-purified acid extract)
T2 sequence (P14555 21-144): T1 sequence (P14555 21-144)
Protocol: as §1, §2, §3, §4, §5, §6, §7, §8, §9, §10
^6 Two human PLA2 enzymes are used:
(a) semi-purified human platelet acid extract PLA2 (in 10 mM sodium acetate buffer, pH 4.5). Remove protein precipitate by centrifugation at about 2200 rpm for 10 minutes. […]
as §11, §12

[1] = test system: paw edema induced by the exogenous administration of PLA2; assay: Murine paw edema assay (edema induced by exogenous PLA2); format: in vivo, mouse (male CD-1); conditions: for % change paw edema: 30 mg/kg i.p., * p ≤0.05; for % change paw edema (in words): dose and time not given
[2] = test system: TPA-induced ear edema in mouse ears; assay: TPA-induced dermal inflammation in mouse ears; format: in vivo, mouse (female Swiss Webster); conditions: Topical, 30 min after TPA, measured 4 h after TPA, * p ≤0.05
Protocol: 2. TPA-induced dermal inflammation in mouse ears
Female Swiss Webster mice (Buckshire; 8 weeks old) were divided into groups of six. Tetradecanoylphorbol acetate CrPA) was dissolved in acetone at concentrations of 50 mg/ml and 200 μg/ml, respectively. Each mouse received 4 μg/ear of TPA on the right ear. These suboptimal doses of phlogistics were applied by an automatic pipette in 10 μl volumes to both the inner and outer surfaces of the ear. The left ear (control) received acetone or vehicle. […] Drags were given 30 min. after treatment (+30 min) with TPA. Edema measurements were taken with an Oditest calipers. The thickness of the right and left ears were usually measured in traits of 0.01 mm 4 h after TPA application. Ear edema was calculated by subtracting the thickness of the left ear (vehicle control) from right ear (treated ear).

[3] = test compounds, value in parentheses, Table 1, read-out: (IC50) HSF
[4] = test compounds, value in parentheses, Table 1, read-out: (IC50) HP

CCCCC/C=C\C/C=C\C/C=C\C/C=C\CCCC(=O)O [Arachidonic Acid, reference compound]
IC50 (Human Synovial PLA2; standard drugs, read-out: IC50 Human Synovial PLA2 (standard drugs)): 3.2 µM | IC50 (Human Platelet PLA2; standard drugs, read-out: IC50 Human Platelet PLA2 (standard drugs)): 8.6 µM

CCCCCCCC/C=C\CCCCCCCC(=O)Nc1nc(CC(=O)O)cs1 [Example 1, 2[((Z)-1-Oxo-9-octadecenyl)amino]-4-thiazoleacetic acid]
inhibition at 50 µM (Human Synovial PLA2): 96% | IC50 (Human Synovial PLA2; [3]): 1.7 µM | inhibition at 50 µM (Human Platelet PLA2): 57.5% | IC50 (Human Platelet PLA2; [4]): 27.9 µM

CCCCCCCC/C=C\CCCCCCCC(=O)Nc1nc(CC(=O)O)cs1 [Example 2, 2-[((Z)-1-Oxo-9-octadecenyl)amino]-4-thizaoleacetic acid, tromethamine (2-amino-2-hydroxymethyl)-1,3-propanediol) salt]
inhibition at 10 µM (Human Synovial PLA2): 25.9% | inhibition at 10 µM (Human Platelet PLA2): 36%

CCCCCCCC/C=C/CCCCCCCC(=O)Nc1nc(CC(=O)O)cs1 [Example 3, 2-[((E)-1-Oxo-9-octadecenyl)amino]-4-thiazoleacetic acid]
inhibition at 50 µM (Human Synovial PLA2): 81.7% | IC50 (Human Synovial PLA2; [3]): 2.1 µM | inhibition at 50 µM (Human Platelet PLA2): 70% | IC50 (Human Platelet PLA2; [4]): 25.7 µM | % change paw edema ([1]; 10 min after PLA2): -33% | % change paw edema ([1]; 30 min after PLA2): -43% | % Change Edema ([2]; 100 mg/ear (so in the source)): -20%

CCCCCCCCC#CCCCCCCCC(=O)Nc1nc(CC(=O)O)cs1 [Example 4, 2-[(1-Oxo-9-octadecynyl)amino]-4-thiazoleacetic acid]
% Inhibition HSF (Human Synovial PLA2): 42.5% | % Inhibition HP (Human Platelet PLA2): 8.9%

CCCCCCCCC#CCCCCCCCC(=O)Nc1nc(CC(=O)O)cs1 [Example 5, 2-[(1-Oxo-9-octadecynyl)amino]-4-thiazoleacetic acid, tromethamine salt]
% Inhibition HSF (Human Synovial PLA2): 66% | % Inhibition HP (Human Platelet PLA2): 26%

CCCCC/C=C/C/C=C/CCCCCCCC(=O)Nc1nc(CC(=O)O)cs1 [Example 6]
inhibition at 10 µM (Human Synovial PLA2): 84.8% | inhibition at 10 µM (Human Platelet PLA2): 74.6%

CC/C=C\C/C=C\C/C=C\CCCCCCCC(=O)Nc1nc(CC(=O)O)cs1 [Example 7, 2-[((Z,Z,Z)-1-Oxo-9,12,15-octadecatrienyl)amino]-4-thiazole-acetic acid]
inhibition at 10 µM (Human Synovial PLA2): 38.5% | inhibition at 10 µM (Human Platelet PLA2): 0.5%

CCCC/C=C\CCCCCCCC(=O)Nc1nc(CC(=O)O)cs1 [Example 8, 2-[((Z)-1-Oxo-9-tetradecenyl)amino]-4-thiazoleacetic Acid]
% Inhibition HSF (Human Synovial PLA2): 2% | inhibition at 10 µM (Human Platelet PLA2): 65.6%

CCCC/C=C\CCCCCCCC(=O)Nc1nc(CC(=O)O)cs1 [Example 9, 2[((Z)-1-Oxo-9-tetradecenyl)amino]-4-thiazoleacetic acid, tromethamine salt]
% Inhibition HSF (Human Synovial PLA2): 26.9% | % Inhibition HP (Human Platelet PLA2): 74%

CCCCC/C=C\C/C=C\CCCCCCCCCC(=O)Nc1nc(CC(=O)O)cs1 [Example 10, 2[((Z,Z)-1-Oxo-11,14-eicosadienyl)amino]-4-thiazoleacetic acid]
inhibition at 50 µM (Human Synovial PLA2): 86.3% | inhibition at 50 µM (Human Platelet PLA2): 82.7%

CC1=C(CC/C(C)=C/CC/C(C)=C/CCC2=CC(=O)OC2O)C(C)(C)CCC1 (centres unmarked) [Luffariellolide, reference compound]
% change paw edema (in words) [1]: Inactive

c1ccc2nc(COc3cccc4ccccc34)ccc2c1 [WY-47288, reference compound]
% change paw edema (in words) [1]: Inactive | % Change Edema ([2]; 1 mg/ear): -40%
